In patent publication US20200029564A1, “NOVEL 5-SUBSTITUTED IMIDAZOLYLMETHYLOXIRANE DERIVATIVES” (Bayer CropScience Aktiengesellschaft, priority 2016, published 2020):

Experiments:
Puccinia recondita = assay: In vivo preventive test on Puccinia recondita (brown rust on wheat); details: 264 h, 500 ppm of active ingredient, preventive spray on young wheat plants, evaluated 11 days after inoculation, read-out: efficacy
Description: (§1) Example A: In Vivo Preventive Test on Puccinia recondita (Brown Rust on Wheat) [table] The active ingredients are made soluble and homogenized in a mixture of Dimethyl sulfoxide/Acetone/Tween® 80 and then diluted in water to the desired concentration. The young plants of wheat are treated by spraying the active ingredient prepared as described above. Control plants are treated only with an aqueous solution of Acetone/Dimethyl sulfoxide/Tween® 80. After 24 hours, the plants are contaminated by spraying the leaves with an aqueous suspension of Puccinia recondita spores. The contaminated wheat plants are incubated for 24 hours at 20° C. and at 100% relative humidity and then for 10 days at 20° C. and at 70-80% relative humidity. The test is evaluated 11 days after the inoculation. 0% means an efficacy which corresponds to that of the control plants while an efficacy of 100% means that no disease is observed.

[1] = LogP by HPLC on reversed phase columns (EEC directive 79/831 Annex V.A8); format: physicochemical; details: method [a]: LC-UV, acidic range, 0.1% formic acid in water and acetonitrile as eluent; for chromatographic logP: reversed phase HPLC column
Description: [table] If more than one Log P value is available within the same method, all the values are given and separated by “+”. Calibration was done with straight-chain alkan2-ones (with 3 to 16 carbon atoms) with known Log P values (measurement of Log P values using retention times with linear interpolation between successive alkanones). Lambda-max-values were determined using UV-spectra from 200 nm to 400 nm and the peak values of the chromatographic signals.

Uromyces appendiculatus = assay: In vivo preventive test on Uromyces appendiculatus (bean rust); details: 264 h, 500 ppm of active ingredient, preventive spray on young bean plants, evaluated 11 days after inoculation, read-out: efficacy
Description: as §1, with “D:” for “A:”, “Uromyces appendiculatus (Bean Rust)” for “Puccinia recondita (Brown Rust on Wheat)”, “bean” for “wheat”, “Uromyces appendiculatus” for “Puccinia recondita”

[2] = system: Blumeria graminis fsp. hordei; assay: In vivo preventive Blumeria test (barley); details: 168 h, 500 ppm of active ingredient, preventive spray on young barley plants, evaluated 7 days after inoculation, read-out: efficacy
Description: Example F: In Vivo Preventive Blumeria Test (Barley) [table] To produce a suitable preparation of active compound, 1 part by weight of active compound or active compound combination is mixed with the stated amounts of solvent and emulsifier, and the concentrate is diluted with water to the desired concentration. To test for preventive activity, young plants are sprayed with the preparation of active compound or active compound combination at the stated rate of application. After the spray coating has been dried, the plants are dusted with spores of Blumeria graminis fsp. hordei. The plants are placed in the greenhouse at a temperature of approximately 18° C. and a relative atmospheric humidity of approximately 80% to promote the development of mildew pustules. The test is evaluated 7 days after the inoculation. 0% means an efficacy which corresponds to that of the untreated control, while an efficacy of 100% means that no disease is observed.

Septoria tritici = assay: In vivo preventive test on Septoria tritici (leaf spot on wheat); details: Zymoseptoria tritici, 576 h; 500 ppm of active ingredient; preventive spray on young wheat plants; evaluated 24 days after inoculation; read-out: efficacy
Description: Example B: In Vivo Preventive Test on Septoria tritici (Leaf Spot on Wheat) [table] The active ingredients are made soluble and homogenized in a mixture of Dimethyl sulfoxide/Acetone/Tween® 80 and then diluted in water to the desired concentration. The young plants of wheat are treated by spraying the active ingredient prepared as described above. Control plants are treated only with an aqueous solution of Acetone/Dimethyl sulfoxide/Tween® 80. After 24 hours, the plants are contaminated by spraying the leaves with an aqueous suspension of Septoria tritici spores. The contaminated wheat plants are incubated for 72 hours at 18° C. and at 100% relative humidity and then for 21 days at 20° C. and at 90% relative humidity. The test is evaluated 24 days after the inoculation. 0% means an efficacy which corresponds to that of the control plants while an efficacy of 100% means that no disease is observed.

Sphaerotheca fuliginea = assay: In vivo preventive test on Sphaerotheca fuliginea (powdery mildew on cucurbits); details: Podosphaera fuliginea, 360 h; 500 ppm of active ingredient; preventive spray on young gherkin plants; evaluated 15 days after inoculation; read-out: efficacy
Description: Example C: In Vivo Preventive Test on Sphaerotheca fuliginea (Powdery Mildew on Cucurbits) [table] The active ingredients are made soluble and homogenized in a mixture of Dimethyl sulfoxide/Acetone/Tween® 80 and then diluted in water to the desired concentration. The young plants of gherkin are treated by spraying the active ingredient prepared as described above. Control plants are treated only with an aqueous solution of Acetone/Dimethyl sulfoxide/Tween® 80. After 24 hours, the plants are contaminated by spraying the leaves with an aqueous suspension of Sphaerotheca fuidiginea spores. The contaminated gherkin plants are incubated for 72 hours at 18° C. and at 100% relative humidity and then for 12 days at 20° C. and at 70-80% relative humidity. The test is evaluated 15 days after the inoculation. 0% means an efficacy which corresponds to that of the control plants while an efficacy of 100% means that no disease is observed.

| Structure (SMILES) | chromatographic logP [1] | LogP [1] | pest or weed control at 500 ppm (Puccinia recondita) | pest or weed control at 500 ppm (Uromyces appendiculatus) | pest or weed control at 500 ppm [2] | pest or weed control at 500 ppm (Septoria tritici) | pest or weed control at 500 ppm (Sphaerotheca fuliginea) |
| --- | --- | --- | --- | --- | --- | --- | --- |
| N#Cc1cncn1CC1(c2ccc(F)cc2)OC1c1ccccc1Br (stereo not shown) [I-13] | 3.44 |  | 90 to 100% | 90 to 100% | 90 to 100% | 90 to 100% |  |
| Fc1ccc(C2(Cn3cncc3F)OC2c2ccccc2Br)cc1 (stereo not shown) [I-14] | 2.66 |  |  | 90 to 100% | 90 to 100% | 90 to 100% | 90 to 100% |
| N#Cc1cncn1CC1(c2ccc(OC(F)(F)F)cc2)OC1c1ccccc1Cl (stereo not shown) [I-07] | 4.11 |  | 90 to 100% | 90 to 100% | 90 to 100% | 90 to 100% | 90 to 100% |
| N#Cc1cncn1CC1(c2ccc(Cl)cc2)OC1c1ccccc1Cl (stereo not shown) [I-06] | 3.68 |  | 90 to 100% | 90 to 100% | 90 to 100% | 90 to 100% | 90 to 100% |
| N#Cc1cncn1C[C@]1(c2ccc(F)cc2)O[C@H]1c1ccccc1Cl (relative stereo) [I-03, trans 3-[[3-(2-chlorophenyl)-2-(4-fluorophenyl)oxiran-2-yl]methyl]imidazole-4-carbonitrile] | 3.33 |  |  | 90 to 100% | 90 to 100% | 90 to 100% | 90 to 100% |
| N#Cc1cncn1CC1(c2ccc(F)cc2)OC1c1ccccc1F (stereo not shown) [I-12] | 3.06 |  | 90 to 100% | 90 to 100% | 90 to 100% | 90 to 100% | 90 to 100% |
| N#Cc1cncn1CC1(c2ccc(Cl)cc2)OC1c1ccccc1F (stereo not shown) [I-10] | 3.41 |  | 90 to 100% | 90 to 100% | 90 to 100% | 90 to 100% | 90 to 100% |
| N#Cc1cncn1CC1(c2ccc(F)cc2F)OC1c1ccccc1Cl (stereo not shown) [I-09] | 3.06 |  |  | 90 to 100% |  | 90 to 100% | 90 to 100% |

Second part, led by results:

| chromatographic logP [1] | LogP [1] | Structure (SMILES) | pest or weed control at 500 ppm (Puccinia recondita) | pest or weed control at 500 ppm (Uromyces appendiculatus) | pest or weed control at 500 ppm [2] | pest or weed control at 500 ppm (Septoria tritici) | pest or weed control at 500 ppm (Sphaerotheca fuliginea) |
| --- | --- | --- | --- | --- | --- | --- | --- |
| 1.57 |  | Fc1ccc(C2(Cn3cncc3F)OC2c2cccnc2Cl)cc1 (stereo not shown) [I-15] |  |  |  |  | 90 to 100% |
|  | 2.50 ^[a] | N#Cc1cncn1CC1(c2ccc(F)cc2)OC1c1cccnc1Cl (stereo not shown) [I-17] |  | 90 to 100% |  | 90 to 100% |  |
| 3.8 |  | N#Cc1cncn1CC1(c2ccc(Cl)cc2F)OC1c1ccccc1Cl (stereo not shown) [I-25] | 90 to 100% | 90 to 100% | 90 to 100% | 90 to 100% | 90 to 100% |
| 3.44 |  | N#Cc1cncn1CC1(c2ccc(F)cc2)OC1c1cccc(Br)c1 (stereo not shown) [I-23] | 90 to 100% | 90 to 100% |  | 90 to 100% | 90 to 100% |
| 2.2 |  | N#Cc1cncn1CC1(c2ccc(F)cc2)OC1c1cccnc1Cl (stereo not shown) [I-16] |  |  |  |  | 90 to 100% |
